{
  "source": "patent US20060293395A1",
  "about": "“Methods for treating a mammal before, during and after cardiac arrest” (priority 2004, published 2006)",
  "key": {"Male Sprague-Dawley rats [1]": {"test_system": "Male Sprague-Dawley rats", "assay": "Example 4: levosimendan bolus during cardiopulmonary resuscitation (VF cardiac arrest)", "type": "in vivo, rat", "details": "for ETCO2 / Negative dP/dt / left ventricular diastolic pressure: post-resuscitation (FIG. 23)", "method": "No anesthetic agents were initially administrated 30 min prior to inducing cardiac arrest. […] Right atrial pressure was measured with a high-sensitivity pressure transducer (model 42584-01; Abbott Critical Care System, North Chicago, Ill.). […] Blood temperature was measured with this sensor. […] Duplicate thermodilution curves were obtained and recorded with the aid of a cardiac output computer (CO-100; Institute of Critical Care Medicine, Palm Springs, Calif.). A PE 50 catheter was advanced through the left femoral artery into the thoracic aorta for sampling arterial blood for analysis of blood gases and for the measurement of aortic pressure with a high-sensitivity pressure transducer (model 42584-01; Abbott Critical Care System). Systolic, diastolic, and the interpreted mean arterial pressure were continuously recorded. […] A 4F polyethylene catheter (model C-PMS-401J; Cook Critical Care, Bloomington, Ind.) was next advanced through the right external jugular vein into the right atrium for inducing VF. A precurved guide wire, supplied with the catheter, was then advanced through the catheter into the right ventricle until an endocardial electrogram was observed. […] Current flow was then reduced to one half and continued for 3 min such as to prevent spontaneous defibrillation. VF was untreated for six min. […] Precordial compressions were performed with a pneumatically driven mechanical chest compressor. These procedures were previously described in greater detail (Von Planta I, supra) and are well-known to those of ordinary skill in the art (see e.g. Tang W, Weil M H, Sun S, Noc M, Yang L, Gazmuri R. Epinephrine increases the severity of postresuscitation myocardial dysfunction. Circulation 1995; 92: 3089-3093 and Sun S, Weil MH, Tang W, Povoas H, Mason E. Combined effect of buffer and adrenergic agent on postresuscitation myocardial function. Pharmacology 1999; 291 (2): 773-777).\nCoincident with start of precordial compression, the animals were mechanically ventilated."}, "male domestic pigs": {"test_system": "male domestic pigs", "assay": "Levosimendan on post-resuscitation myocardial function after beta-adrenergic blockade (propranolol)", "type": "in vivo, pig", "details": "levosimendan added early postresuscitation after propranolol, in comparison with propranolol alone", "method": "Anesthesia was initiated by intramuscular injection of ketamine (20 mg/kg) and completed by ear vein injection of sodium pentobarbital (30 mg/kg). Additional doses of sodium pentobarbital (8 mg/kg) were injected to maintain anesthesia at intervals of one hour. A cuffed endotracheal tube was advanced into the trachea. Animals were mechanically ventilated with a volume-controlled ventilator (Model MA-1, Puritan-Bennett, Carlsbad, Calif.) with a tidal volume of 15 mL/kg, peak flow of 40 L/min, and FiO2 of 0.21. End-tidal PCO2 (ETCO2) was monitored with an infrared analyzer (Model 01R-7101A, Nihon Kohden Corp, Tokyo, Japan). Respiratory frequency was adjusted to maintain PETCO2 between 35 and 40 mm Hg.\nFor the measurement of left ventricular functions, a 5.5/7.5 […] biplane with Doppler transesophageal echocardiographic transducer with 4-way flexure (Model 21363A, Hewlett-Packard Co., Medical Products Group, Andover, Mass.) was advanced from the incisor teeth into the esophagus for a distance of approximately 35 cm. For the measurement of aortic pressure, a fluid-filled catheter was advanced from the left femoral artery into the thoracic aorta. For the measurements of right atrial, pulmonary arterial pressures and blood temperature, a 7-French, pentalumen, thermodilution-tipped catheter was advanced from the left femoral vein and flow-directed into the pulmonary artery. A 7-French catheter was advanced from the left cephalic vein into the great cardiac vein for the measurement of great cardiac vein blood gases and lactate. For inducing VF, a 5-French pacing catheter (EP Technologies, Inc., Mountain View, Calif.) was advanced from the right cephalic vein into the right ventricle.\nThe investigators were blinded to the randomization. Cardiac arrest was induced with 1 to 2 mA AC delivered to the endocardium of the right ventricle. Mechanical ventilation was discontinued after onset of VF. At the end of the 7-min interval of untreated VF, precordial compression was started with a pneumatic piston-driven chest compressor (Thumper, Model 1000, Michigan Instruments, Grand Rapids, Mich.). […] The compression force was adjusted to decrease the anterior-posterior diameter of the chest by 25%. After 5 min of precordial compression, defibrillation was attempted with a 150 J biphasic waveform shock delivered between the right infraclavicular area and the cardiac apex. If an organized cardiac rhythm with mean aortic pressure of more than 60 mm Hg persisted for an interval of 5 min or more, the animal was regarded as successfully resuscitated. All animals had restoration of spontaneous circulation (ROSC) after electrical defibrillation, and were then randomized to three treatment groups: (1) propranolol (0.1 mg/kg bolus at 6 min of VF); (2) propranolol plus levosimendan (at 10 min after post resuscitation, 20 μg/kg over 10 min followed by 0.4 μg/kg/min for 220 min); and (3) equal volumes of saline as placebo.\nMeasurements were obtained over an interval of 4 hours following resuscitation. After 4 hours, animals were euthanized by intravenous injection of 150 mg kg^−1 pentobarbital. Autopsy was performed to document injuries to the bony thorax and the thoracic and abdominal viscera."}, "Male Sprague-Dawley rats [2]": {"test_system": "Male Sprague-Dawley rats", "assay": "Example 1: post-resuscitation myocardial dysfunction after VF cardiac arrest, drug infusion for 240 min post-resuscitation"}, "rats": {"test_system": "rats", "assay": "Example 1: feasibility studies and dose titration of levosimendan", "type": "in vivo, rat"}, "[3]": {"details": "20 μg/kg bolus during VF, vs placebo"}, "[4]": {"details": "4-hour interval following resuscitation, vs saline placebo (FIG. 22)"}, "[5]": {"details": "12 μg levosimendan followed by 0.3 μg/kg/min, comparable to 3 μg/kg/min dobutamine"}},
  "note": "“Also recorded” adds a separate entry of the source.",
  "data": [
    {"smiles": "C[C@@H]1CC(=O)NN=C1c1ccc(NN=C(C#N)C#N)cc1", "note": "[Levosimendan]", "values": [
      {"measurement": "cumulative number of electrical shocks required for successful defibrillation", "setting": "Male Sprague-Dawley rats [1]; [3]", "result": "significantly less"},
      {"measurement": "interval of CPR prior to successful resuscitation", "setting": "Male Sprague-Dawley rats [1]; [3]", "result": "significantly shorter"},
      {"measurement": "MAP", "setting": "Male Sprague-Dawley rats [1]; [4]", "result": "Significantly greater; also recorded: increases"},
      {"measurement": "cardiac index", "setting": "Male Sprague-Dawley rats [1]; [4]", "result": "Significantly greater; also recorded: increases"},
      {"measurement": "dP/dt40", "setting": "Male Sprague-Dawley rats [1]; [4]", "result": "Significantly greater; also recorded: increases"},
      {"measurement": "CPP", "setting": "Male Sprague-Dawley rats [1]; levosimendan vs placebo controls, prior to/or after administration", "result": "No differences"},
      {"measurement": "ST segment elevation", "setting": "Male Sprague-Dawley rats [1]; post-resuscitation", "result": "lesser"},
      {"measurement": "ETCO2", "setting": "Male Sprague-Dawley rats [1]", "result": "increases"},
      {"measurement": "Negative dP/dt", "setting": "Male Sprague-Dawley rats [1]", "result": "increases"},
      {"measurement": "left ventricular diastolic pressure", "setting": "Male Sprague-Dawley rats [1]", "result": "decreased"},
      {"measurement": "ETCO2", "setting": "Male Sprague-Dawley rats [1]; listed as levosimendan", "result": "increased"},
      {"measurement": "Negative dP/dt", "setting": "Male Sprague-Dawley rats [1]; listed as levosimendan", "result": "increased"},
      {"measurement": "left ventricular diastolic pressure", "setting": "Male Sprague-Dawley rats [1]; listed as levosimendan", "result": "reduction"},
      {"measurement": "duration of post-resuscitation survival", "setting": "Male Sprague-Dawley rats [1]; vs placebo", "result": "significantly increased"},
      {"measurement": "peripheral arterial resistance (PAR)", "setting": "Male Sprague-Dawley rats [1]; vs saline placebo (FIG. 24)", "result": "significantly decreased"},
      {"measurement": "EF", "setting": "male domestic pigs", "result": "additional and significant increases"},
      {"measurement": "FAC", "setting": "male domestic pigs", "result": "additional and significant increases"},
      {"measurement": "arterial pressures", "setting": "Male Sprague-Dawley rats [2]; among the three groups, at PR10 and after administration of the drugs (FIG. 4)", "result": "No significant differences"},
      {"measurement": "cardiac index", "setting": "Male Sprague-Dawley rats [2]; post-resuscitation (FIG. 6)", "result": "comparable increases in cardiac index"},
      {"measurement": "contractility as reflected in the dP/dt40", "setting": "Male Sprague-Dawley rats [2]; post-resuscitation (FIG. 9)", "result": "consistently greater increases in contractility"},
      {"measurement": "stroke volume", "setting": "Male Sprague-Dawley rats [2]; post-resuscitation, initially (FIG. 7)", "result": "significantly greater stroke volumes"},
      {"measurement": "left ventricular diastolic (filling) pressures", "setting": "Male Sprague-Dawley rats [2]; vs control and dobutamine-treated animals (FIG. 11)", "result": "substantially lower and near normal"},
      {"measurement": "post-resuscitation survival", "setting": "Male Sprague-Dawley rats [2]; vs dobutamine and placebo (FIG. 12)", "result": "significantly longer post-resuscitation survival"},
      {"measurement": "systemic vascular (arterial) resistance", "setting": "Male Sprague-Dawley rats [2]; vs placebo-treated controls (FIG. 8)", "result": "Comparable and significant reductions"},
      {"measurement": "arterial pressure", "setting": "rats; [5]", "result": "declines in arterial pressure"},
      {"measurement": "cardiac output", "setting": "rats; [5]", "result": "increases in cardiac output"},
      {"measurement": "arterial pressure", "setting": "rats; higher doses of levosimendan", "result": "decreases in arterial pressure"},
      {"measurement": "cardiac output", "setting": "rats; higher doses of levosimendan", "result": "additional increases in cardiac output"},
      {"measurement": "heart rate", "setting": "rats; higher doses of levosimendan", "result": "increases in heart rate"}
    ]}
  ]
}
